In ChEMBL document CHEMBL1147843, “Synthesis of a novel C2-aryl pyrrolo[2,1-c][1,4]benzodiazepine-5,11-dione library: effect of C2-aryl substitution on cytotoxicity and non-covalent DNA binding” (2007):

Legend:
DNA [1] = experiment: Binding affinity to calf thymus DNA at 20 uM after 4 hrs by thermal denaturation assay; format: nucleic-acid assay; conditions: Bos taurus
DNA [2] = experiment: Binding affinity to calf thymus DNA at 20 uM after 18 hrs by thermal denaturation assay; format: nucleic-acid assay; conditions: Bos taurus
DNA [3] = experiment: Binding affinity to calf thymus DNA at 20 uM after 72 hrs by thermal denaturation assay; format: nucleic-acid assay; conditions: Bos taurus
MCF7 = experiment: Cytotoxicity against human MCF7 cells assessed as cell growth at 50 uM after 48 hrs by Alamar Blue assay relative to control; format: functional; conditions: MCF7, 48 h, read-out: Activity
NCI-H460 = experiment: Cytotoxicity against human NCI-H460 cells assessed as cell growth at 50 uM after 48 hrs by Alamar Blue assay relative to control; format: functional; conditions: NCI-H460, 48 h, read-out: Activity
SF-268 = experiment: Cytotoxicity against human SF268 cells assessed as cell growth at 50 uM after 48 hrs by Alamar Blue assay relative to control; format: functional; conditions: SF-268, 48 h, read-out: Activity
A498 = experiment: Growth inhibition of human A498 cells after 48 hrs by sulforhodamine B assay relative to control; format: functional; conditions: A498, 48 h
NCI = experiment: Growth inhibition of human NCI 60 cells after 48 hrs by sulforhodamine B assay relative to control; format: functional

SMILES	ΔTm (DNA [1])	ΔTm (DNA [2])	ΔTm (DNA [3])	growth at 50 µM (MCF7)	growth at 50 µM (NCI-H460)	growth at 50 µM (SF-268)	GI50 (A498)	GI50 (NCI)
Nc1ccc(C2=CN3C(=O)c4ccccc4NC(=O)[C@@H]3C2)cc1	1.1 °C	1.1 °C	1.1 °C					
O=C1Nc2ccccc2C(=O)N2C=C(c3ccc(Cl)c(Cl)c3)C[C@@H]12	2.1 °C	2.2 °C	2.2 °C	51%	5%	86%	> 50 µM	46.8 µM
Cc1ccc2c(c1O)NC(O)C1CC(/C=C/C(N)=O)=CN1C2=O (stereo not drawn) [ANTHRAMYCIN]							0.195 µM	0.029 µM
O=C1Nc2ccccc2C(=O)N2C=C(c3cccc([N+](=O)[O-])c3)C[C@@H]12	0.9 °C	1 °C	1 °C					
O=Cc1ccc(C2=CN3C(=O)c4ccccc4NC(=O)[C@@H]3C2)cc1	1.5 °C	1.4 °C	1.5 °C					
O=C1Nc2ccccc2C(=O)N2C=C(c3ccc(Br)cc3)C[C@@H]12	2 °C	2 °C	2.1 °C	61%	20%	109%	0.51 µM	7.41 µM
O=C1Nc2ccccc2C(=O)N2C=C(c3cccc4ccccc34)C[C@@H]12	2.3 °C	2.3 °C	2.4 °C	42%	29%	73%	3.16 µM	14.8 µM
O=C1Nc2ccccc2C(=O)N2C=C(c3ccccc3)C[C@@H]12	1.5 °C	1.5 °C	1.6 °C					
